# Measured values reported in PubChem BioAssay AID2060505 (Molecular Pharmacology Branch, DTP, NCI, 2025).
# pIC50: −log10 of the molar value.
# System: 633275-114-R-J1-PDC complex spheroids, viability
# Assay: Anticancer human tumor 633275-114-R-J1-PDC patient-derived endometrial adenocarcinoma cell line growth inhibition [GQUAD]
# Conditions: for pIC50: curve of first compound; for viability, T/C: stronger effect = lower value
# Method in brief: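 Viability of tumor cells grown as complex spheroids with endothelial and stromal cells, exposed to drug combinations. Top concentration at or near clinical Cmax (else 10 microM), diluted in half-log increments.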
# [1] = second compound 0.0316 µM, first compound 0.0316 µM
# [2] = second compound 0.0316 µM, first compound 0.1 µM
# [3] = second compound 0.0316 µM, first compound 0.316 µM
# [4] = second compound 0.0316 µM, first compound 1 µM
# [5] = second compound 0.0316 µM, first compound 3.16 µM
# [6] = second compound 0.0316 µM, first compound 10 µM
# [7] = second compound 0.1 µM, first compound 0.0316 µM
# [8] = second compound 0.1 µM, first compound 0.1 µM
# [9] = second compound 0.1 µM, first compound 0.316 µM
# [10] = second compound 0.1 µM, first compound 1 µM
# [11] = second compound 0.1 µM, first compound 3.16 µM
# [12] = second compound 0.1 µM, first compound 10 µM
# [13] = second compound 0.316 µM, first compound 0.0316 µM
# [14] = second compound 0.316 µM, first compound 0.1 µM
# [15] = second compound 0.316 µM, first compound 0.316 µM
# [16] = second compound 0.316 µM, first compound 1 µM
# [17] = second compound 0.316 µM, first compound 3.16 µM
# [18] = second compound 0.316 µM, first compound 10 µM
# [19] = second compound 1 µM, first compound 0.0316 µM
# [20] = second compound 1 µM, first compound 0.1 µM
# [21] = second compound 1 µM, first compound 0.316 µM
# [22] = second compound 1 µM, first compound 1 µM
# [23] = second compound 1 µM, first compound 3.16 µM
# [24] = second compound 1 µM, first compound 10 µM
# [25] = second compound 3.16 µM, first compound 0.0316 µM
# [26] = second compound 3.16 µM, first compound 0.1 µM
# [27] = second compound 3.16 µM, first compound 0.316 µM
# [28] = second compound 3.16 µM, first compound 1 µM
# [29] = second compound 3.16 µM, first compound 3.16 µM
# [30] = second compound 3.16 µM, first compound 10 µM
# [31] = second compound 10 µM, first compound 0.0316 µM
# [32] = second compound 10 µM, first compound 0.1 µM
# [33] = second compound 10 µM, first compound 0.316 µM
# [34] = second compound 10 µM, first compound 1 µM
# [35] = second compound 10 µM, first compound 3.16 µM
# [36] = second compound 10 µM, first compound 10 µM
# 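Further: spheroids exposed to the agents for seven days.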
# 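Wherever viability, T/C is given: percent of DMSO vehicle control viability which is 100%.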
compound,measurement,setting,value
C=CC(=O)N1CCN(c2nc(=O)n(-c3c(C)ccnc3C(C)C)c3nc(-c4c(O)cccc4F)c(F)cc23)C(C)C1 (stereo unspecified) + Cc1cnc(CNC(=O)c2c(=O)c3ccc(N4CCCN(C)CC4)nc3n3c2sc2ccccc23)cn1,pIC50,second compound 0.0316 µM,< 5.00
same,pIC50,second compound 0.1 µM,< 5.00
same,pIC50,second compound 0.316 µM,> 7.50
same,pIC50,second compound 1 µM,> 7.50
same,pIC50,second compound 3.16 µM,> 7.50
same,pIC50,second compound 10 µM,> 7.50
same,"viability, T/C",[1],67.1%
same,"viability, T/C",[2],62.3%
same,"viability, T/C",[3],78.3%
same,"viability, T/C",[4],69%
same,"viability, T/C",[5],65.4%
same,"viability, T/C",[6],68.1%
same,"viability, T/C",[7],57.4%
same,"viability, T/C",[8],57.8%
same,"viability, T/C",[9],55.4%
same,"viability, T/C",[10],57%
same,"viability, T/C",[11],59.8%
same,"viability, T/C",[12],51.6%
same,"viability, T/C",[13],46.8%
same,"viability, T/C",[14],44.9%
same,"viability, T/C",[15],47.6%
same,"viability, T/C",[16],53.5%
same,"viability, T/C",[17],54.1%
same,"viability, T/C",[18],46.8%
same,"viability, T/C",[19],41.6%
same,"viability, T/C",[20],48.2%
same,"viability, T/C",[21],45.7%
same,"viability, T/C",[22],42.9%
same,"viability, T/C",[23],47.7%
same,"viability, T/C",[24],41%
same,"viability, T/C",[25],37.3%
same,"viability, T/C",[26],36.5%
same,"viability, T/C",[27],39.4%
same,"viability, T/C",[28],42.6%
same,"viability, T/C",[29],42.4%
same,"viability, T/C",[30],37.6%
same,"viability, T/C",[31],32.3%
same,"viability, T/C",[32],34.1%
same,"viability, T/C",[33],34%
same,"viability, T/C",[34],35.9%
same,"viability, T/C",[35],39.7%
same,"viability, T/C",[36],30.2%
CC(C)n1c(=O)n(C)c2cnc3cc(F)c(-c4ccc(OCCCN5CCCCC5)nc4)cc3c21 + Cc1cnc(CNC(=O)c2c(=O)c3ccc(N4CCCN(C)CC4)nc3n3c2sc2ccccc23)cn1,pIC50,second compound 0.0316 µM,< 5.00
same,pIC50,second compound 0.1 µM,> 7.50
same,pIC50,second compound 0.316 µM,> 7.50
same,pIC50,second compound 1 µM,> 7.50
same,pIC50,second compound 3.16 µM,> 7.50
same,pIC50,second compound 10 µM,> 7.50
same,"viability, T/C",[1],58%
same,"viability, T/C",[2],58.5%
same,"viability, T/C",[3],52.9%
same,"viability, T/C",[4],52.9%
same,"viability, T/C",[5],56.4%
same,"viability, T/C",[6],54%
same,"viability, T/C",[7],44.2%
same,"viability, T/C",[8],45.1%
same,"viability, T/C",[9],42.9%
same,"viability, T/C",[10],42.2%
same,"viability, T/C",[11],49.5%
same,"viability, T/C",[12],47.2%
same,"viability, T/C",[13],46.6%
same,"viability, T/C",[14],42.1%
same,"viability, T/C",[15],40.9%
same,"viability, T/C",[16],41.6%
same,"viability, T/C",[17],46.4%
same,"viability, T/C",[18],39.4%
same,"viability, T/C",[19],42.7%
same,"viability, T/C",[20],37.1%
same,"viability, T/C",[21],37.1%
same,"viability, T/C",[22],43.5%
same,"viability, T/C",[23],39.2%
same,"viability, T/C",[24],33.6%
same,"viability, T/C",[25],32.2%
same,"viability, T/C",[26],34.5%
same,"viability, T/C",[27],33.8%
same,"viability, T/C",[28],32.3%
same,"viability, T/C",[29],33.9%
same,"viability, T/C",[30],25.2%
same,"viability, T/C",[31],31.3%
same,"viability, T/C",[32],32%
same,"viability, T/C",[33],32.2%
same,"viability, T/C",[34],29.1%
same,"viability, T/C",[35],31.4%
same,"viability, T/C",[36],9.52%
CC1COCCN1c1cc(-c2ccnn2C)c2ccnc(-c3ccn[nH]3)c2n1 (stereo unspecified) + Cc1cnc(CNC(=O)c2c(=O)c3ccc(N4CCCN(C)CC4)nc3n3c2sc2ccccc23)cn1,pIC50,second compound 0.0316 µM,> 7.50
same,pIC50,second compound 0.1 µM,> 7.50
same,pIC50,second compound 0.316 µM,> 7.50
same,pIC50,second compound 1 µM,> 7.50
same,pIC50,second compound 3.16 µM,> 7.50
same,pIC50,second compound 10 µM,> 7.50
same,"viability, T/C",[1],43.9%
same,"viability, T/C",[2],32.6%
same,"viability, T/C",[3],29.8%
same,"viability, T/C",[4],25.8%
same,"viability, T/C",[5],18.7%
same,"viability, T/C",[6],14.7%
same,"viability, T/C",[7],42.2%
same,"viability, T/C",[8],37.7%
same,"viability, T/C",[9],30.2%
same,"viability, T/C",[10],22.6%
same,"viability, T/C",[11],17.3%
same,"viability, T/C",[12],14.9%
same,"viability, T/C",[13],38.8%
same,"viability, T/C",[14],38.2%
same,"viability, T/C",[15],30.6%
same,"viability, T/C",[16],24%
same,"viability, T/C",[17],17.5%
same,"viability, T/C",[18],10.9%
same,"viability, T/C",[19],36.9%
same,"viability, T/C",[20],36.6%
same,"viability, T/C",[21],29.1%
same,"viability, T/C",[22],22.2%
same,"viability, T/C",[23],15.4%
same,"viability, T/C",[24],11.1%
same,"viability, T/C",[25],33.6%
same,"viability, T/C",[26],29.1%
same,"viability, T/C",[27],25%
same,"viability, T/C",[28],20.8%
same,"viability, T/C",[29],13.3%
same,"viability, T/C",[30],9.84%
same,"viability, T/C",[31],28.5%
same,"viability, T/C",[32],24.7%
same,"viability, T/C",[33],23.4%
same,"viability, T/C",[34],18.4%
same,"viability, T/C",[35],14.4%
same,"viability, T/C",[36],8.93%
